≈ marks a conversion by molar mass, not a printed value.
Key:
Format in all cases: functional
[1] = system: Acinetobacter radioresistens; experiment: Antimicrobial activity against Acinetobacter radioresistens 251-39C expressing beta-lactamase OXA-133 by CLSI method in presence of beta-lactamase inhibitor clavulanate
[2] = system: Acinetobacter radioresistens; experiment: Antimicrobial activity against plasmid encoded beta-lactamase OXA-58 deficient Acinetobacter radioresistens by CLSI method in presence of beta-lactamase inhibitor clavulanate
[3] = system: Acinetobacter radioresistens; experiment: Antimicrobial activity against Acinetobacter radioresistens 251-39C expressing beta-lactamase OXA-133 by CLSI method
[4] = system: Acinetobacter radioresistens; experiment: Antimicrobial activity against plasmid encoded beta-lactamase OXA-58 deficient Acinetobacter radioresistens by CLSI method
[5] = system: Acinetobacter radioresistens; experiment: Antimicrobial activity against Acinetobacter radioresistens 251-39C expressing beta-lactamase OXA-133 by CLSI method in presence of beta-lactamase inhibitor Sulbactam
[6] = system: Acinetobacter radioresistens; experiment: Antimicrobial activity against plasmid encoded beta-lactamase OXA-58 deficient Acinetobacter radioresistens by CLSI method in presence of beta-lactamase inhibitor Sulbactam
[7] = system: Acinetobacter radioresistens; experiment: Antimicrobial activity against Acinetobacter radioresistens 251-39C expressing beta-lactamase OXA-133 by CLSI method in presence of beta-lactamase inhibitor Tazobactam
[8] = system: Acinetobacter radioresistens; experiment: Antimicrobial activity against plasmid encoded beta-lactamase OXA-58 deficient Acinetobacter radioresistens by CLSI method in presence of beta-lactamase inhibitor Tazobactam

Question: What does the source list for CC1(C)S[C@@H]2[C@H](NC(=O)[C@H](C(=O)O)c3ccsc3)C(=O)N2[C@H]1C(=O)O [TICARCILLIN]?
Answer: MIC [1]: > 256 µg/mL; MIC [2]: 4 µg/mL

Question: Which results are given for CC1(C)S[C@@H]2[C@H](NC(=O)[C@H](N)c3ccc(O)cc3)C(=O)N2[C@H]1C(=O)O [AMOXICILLIN]?
Answer: MIC [1]: 32 µg/mL; MIC [2]: 2 µg/mL

Question: CO/N=C(\C(=O)N[C@@H]1C(=O)N2C(C(=O)O)=C(CSc3nc(=O)c(O)nn3C)CS[C@H]12)c1csc(N)n1 [CEFTRIAXONE] was tested. Which MIC [3] did it give?
Answer: 4 µg/mL (≈ 7.21 µM)

Question: And the MIC [4]?
Answer: 2 µg/mL (≈ 3.61 µM)

Question: What does the source list for POLYMYXIN B?
Answer: MIC [3]: < 0.5 µg/mL; MIC [4]: < 0.5 µg/mL

Question: With C[C@@H](O)[C@H]1C(=O)N2C(C(=O)O)=C(S[C@@H]3CN[C@H](C(=O)Nc4cccc(C(=O)O)c4)C3)[C@H](C)[C@H]12 as the molecule, how does the MIC [3] read?
Answer: 4 µg/mL (≈ 8.41 µM)

Question: What about the MIC [4] of the same molecule?
Answer: 1 µg/mL (≈ 2.1 µM)

Question: Which results are given for NC[C@H]1O[C@H](O[C@H]2[C@H](O)[C@@H](O[C@H]3O[C@H](CO)[C@@H](O)[C@H](N)[C@H]3O)[C@H](N)C[C@@H]2N)[C@H](N)C[C@@H]1O [TOBRAMYCIN]?
Answer: MIC [3]: 2 µg/mL (≈ 4.28 µM); MIC [4]: 2 µg/mL (≈ 4.28 µM)

Question: What does the source list for CO[C@@]1(NC(=O)Cc2cccs2)C(=O)N2C(C(=O)O)=C(COC(N)=O)CS[C@@H]21 [CEFOXITIN]?
Answer: MIC [3]: 8 µg/mL (≈ 18.7 µM); MIC [4]: 8 µg/mL (≈ 18.7 µM)

Question: C[C@@H](O)[C@H]1C(=O)N2C(C(=O)O)=C(SCCNC=N)C[C@H]12 [IMIPENEM ANHYDROUS] was tested. Which MIC [3] did it give?
Answer: 8 µg/mL (≈ 26.7 µM)

Question: What about the MIC [4] of the same molecule?
Answer: 0.25 µg/mL (≈ 0.835 µM)

Question: With CC1(C)S[C@@H]2[C@H](NC(=O)[C@H](N)c3ccccc3)C(=O)N2[C@H]1C(=O)O [AMPICILLIN] as the molecule, how does the MIC [5] read?
Answer: 1 µg/mL

Question: And the MIC [6]?
Answer: 1 µg/mL

Question: NCC[C@H](O)C(=O)N[C@@H]1C[C@H](N)[C@@H](O[C@H]2O[C@H](CN)[C@@H](O)[C@H](O)[C@H]2O)[C@H](O)[C@H]1O[C@H]1O[C@H](CO)[C@@H](O)[C@H](N)[C@H]1O [AMIKACIN] was tested. Which MIC [3] did it give?
Answer: 0.5 µg/mL (≈ 0.854 µM)

Question: And the MIC [4]?
Answer: 0.5 µg/mL (≈ 0.854 µM)

Question: How did the MIC [3] turn out when CN(C)[C@@H]1C(O)=C(C(N)=O)C(=O)[C@@]2(O)C(O)=C3C(=O)c4c(O)cccc4[C@@](C)(O)[C@H]3C[C@@H]12 [TETRACYCLINE] was run?
Answer: ≤ 2 µg/mL

Question: What about the MIC [4] of the same molecule?
Answer: ≤ 2 µg/mL

Question: How did the MIC [3] turn out when C[C@@H](O)[C@H]1C(=O)N2C(C(=O)O)=C(S[C@@H]3CN[C@H](C(=O)N(C)C)C3)[C@H](C)[C@H]12 [MEROPENEM] was run?
Answer: 1 µg/mL (≈ 2.61 µM)

Question: And the MIC [4]?
Answer: 0.25 µg/mL (≈ 0.652 µM)

Question: How did the MIC [7] turn out when CCN1CCN(C(=O)N[C@@H](C(=O)N[C@@H]2C(=O)N3[C@@H]2SC(C)(C)[C@@H]3C(=O)O)c2ccccc2)C(=O)C1=O [PIPERACILLIN] was run?
Answer: 64 µg/mL

Question: What about the MIC [8] of the same molecule?
Answer: 1 µg/mL

Question: What does the source list for CC(C)(O/N=C(\C(=O)N[C@@H]1C(=O)N2C(C(=O)[O-])=C(C[n+]3ccccc3)CS[C@H]12)c1csc(N)n1)C(=O)O [CEFTAZIDIME]?
Answer: MIC [3]: 0.5 µg/mL (≈ 0.915 µM); MIC [4]: 0.5 µg/mL (≈ 0.915 µM)

From ChEMBL document CHEMBL1629591, “Codetection of blaOXA-23-like gene (blaOXA-133) and blaOXA-58 in Acinetobacter radioresistens: report from the SENTRY antimicrobial surveillance program” (2009)
